Results from patent publication US10149830B2, “Pharmaceutical agents and methods relating thereto” (Cushing Academy, priority 2016, dated 2018).

Experiments:
[1] = test system: HL-60 (promyelocytic leukemia); experiment: MTT reduction cytotoxicity assay, HL-60; assay type: cell-based; conditions: Homo sapiens, HL-60, MTT, 72 h incubation
Protocol: (§1) The human tumor cell lines used were HL-60 (promyelocytic leukemia), MCF-7 (breast adenocarcinoma) and NCI-H292 (lung carcinoma). The cells were obtained from Rio de Janeiro Cell Bank (RJ, Brazil). Cancer cells were maintained in RPMI 1640 medium or DMEN supplemented with 10% fetal bovine serum, 2 mM glutamine, 100 U/mL penicillin, 100 μg/mL streptomycin at 37° C. with 5% CO2. Cytotoxicity of (6R)-6-[(2Z)-pent-2-enyl]-5,6-dihydro-2H-pyran-2-one [(R)-(−)-Tuberolactone] against the three tumor cell lines was assessed using the 3-(4,5-dimethyl-2-thiazolyl)-2,5-diphenyl-2H tetrazolium bromide (MTT) (Sigma Aldrich Co., St. Louis, Mo., USA) reduction assay. Tumor cells were plated in 96-well plates (10^5 cells/mL for adherent cells or 3×10^5 cells/mL for Leukemia). (6R)-6-[(2Z)-pent-2-enyl]-5,6-dihydro-2H-pyran-2-one [(R)-(−)-Tuberolactone] in DMSO (0.3-25 μg/mL) were added to each well and incubated for 72 h. Control groups received the same amount of DMSO. After 69 h of treatment, 25 μL of MTT (5 mg/mL) was added. Three hours later, the MTT formazan product was dissolved in 100 μL of DMSO. Absorbance was measured at 595 nm in plate spectrophotometer (Varioskan Flash, Thermo Scientific). […] IC50 values and their 95% confidence intervals for two different experiments were obtained by non linear regression using Graphpad Prism version 5.0 for Windows (GraphPad Software, San Diego, Calif., USA).

[2] = test system: MCF-7 (breast adenocarcinoma); experiment: MTT reduction cytotoxicity assay, MCF-7; assay type: cell-based; conditions: Homo sapiens, MCF7, MCF-7, MTT, 72 h incubation
Protocol: as §1

[3] = test system: NCI-H292 (lung carcinoma); experiment: MTT reduction cytotoxicity assay, NCI-H292; assay type: cell-based; conditions: Homo sapiens, 72 h incubation
Protocol: as §1

[4] = test system: S. lutea; experiment: Paper disk diffusion antibacterial test, S. lutea; assay type: cell-based, Sarcina lutea; conditions: gram-(+) strain, 24 h at 28° C.
Protocol: (§2) 235 mg alkaloids were extracted from 750 g leaves from the plant, Gaultheria procumbens (also called American wintergreen, teaberry, or boxberry). Fractionation of the crude extract was guided by antimicrobial activity against several gram-(+) and gram-(−) strains: Enterobacter aerogenes (Gram-negative rods), Bacillus cereus (Gram-positive rods), and Sarcina lutea (Gram-positive […]), using the paper disk diffusion method (Barry, A. L.; Thornsbery, C. Identification for Clinical Microbiology, 4th ed.; Washington, D.C., 1985; p 978) supplied within the Science Kit & Boreal Laboratories Antibiotic Effects Kit. The SK Antibiotics Effect Kit uses “Easygel” instead of agar dishes. Each paper disk (6 mm) containing approximately 100 μg of the extract was placed directly onto an Easygel plate, which had been freshly inoculated with either a gram-(+) or (−) strain. In addition, a standard antibiotic disk (30 μg of either penicillin, tetracycline, or chloramphenicol supplied within Science Kit & Boreal Laboratories Antibiotic Effects Kit) as well as a blank disk (with only solvent) were placed on the freshly inoculated Easygel plate. […] 45 mg (6R)-6-[(2Z)-pent-2-enyl]-5,6-dihydro-2H-pyran-2-one [(R)-(−)-Tuberolactone] were isolated (MW. 166.0989 g/mol). […]

[5] = test system: B. cereus; experiment: Paper disk diffusion antibacterial test, B. cereus; assay type: cell-based, Bacillus cereus; conditions: gram-(+) strain, 24 h at 28° C.
Protocol: as §2

[6] = test system: E. aerogenes; experiment: Paper disk diffusion antibacterial test, E. aerogenes; assay type: cell-based, Enterobacter aerogenes; conditions: gram-(−) strain, 24 h at 28° C.
Protocol: as §2

Row | SMILES | IC50 ([1]; two experiments) [µg/mL] | IC50 ([1]; value in parentheses) [µM] | IC50 ([2]; two experiments) [µg/mL] | IC50 ([2]; value in parentheses) [µM] | IC50 ([3]; two experiments) [µg/mL] | IC50 ([3]; value in parentheses) [µM] | antibacterial activity against S. lutea [4] | antibacterial activity against B. cereus [5] | antibacterial activity against E. aerogenes [6]
1 | CC/C=C\C[C@@H]1CC=CC(=O)O1 [Tuberolactone, (6R)-6-[(2Z)-pent-2-enyl]-5,6-dihydro-2H-pyran-2-one] | 4.4 | 26 | 6.4 | 38.5 | 5.9 | 35.5 | confirmed | confirmed | confirmed
2 | COc1cccc2c1C(=O)c1c(O)c3c(c(O)c1C2=O)C[C@@](O)(C(=O)CO)C[C@@H]3O[C@H]1C[C@H](N)[C@H](O)[C@H](C)O1 [Doxorubicin, reference compound] | 0.02 | – | – | – | 0.2 | 0.36 | – | – | –
